Reference: ChEMBL document CHEMBL3885861, “Open TG-GATES”

Species: Rattus norvegicus
Experiment: Open TG-GATES - Regimen: Single
Format: toxicity, organism-based, Sprague-Dawley
Parameters: regimen Single, gender Male, age 6 weeks
Details: in vivo, po, 0 mg/kg, route gavage, dose level Control; for APTT / Bas / Eos / Fbg / Hb / Ht / Lym / MCH / MCV / Mono / Neu / PT / Plat / RBC / Ret / WBC: tissue Blood; for KIDNEY_L / KIDNEY_R / KIDNEY_TOTAL: tissue Kidney; for LIVER: tissue Liver; for ALP / ALT / AST / BUN / CRE / Ca / Cl / DBIL / GLC / IP / K / LDH / Na / PL / RALB / TBIL / TG / TP / gamma-GTP: tissue Plasma

NC(=O)N1c2ccccc2C=Cc2ccccc21 [CARBAMAZEPINE]
TERMINAL_BW (3 h): 216.5 g | APTT (3 h): 20 s | Bas (3 h): 0% | Eos (3 h): 1% | Fbg (3 h): 213.8 mg/dL | Hb (3 h): 13.4 g/dL | Ht (3 h): 38.6% | Lym (3 h): 80% | MCH (3 h): 21.9 pg | MCV (3 h): 63.2 fL | Mono (3 h): 2% | Neu (3 h): 16% | PT (3 h): 12.4 s | Plat (3 h): 131 x10_4/uL | RBC (3 h): 611.8 x10_4/ul | Ret (3 h): 6.3% | WBC (3 h): 106.8 x10_2/uL | KIDNEY_L (3 h): 1 g | KIDNEY_R (3 h): 0.9 g | KIDNEY_TOTAL (3 h): 1.9 g | LIVER (3 h): 10 g | ALP (3 h): 846.4 IU/L | ALT (3 h): 33 IU/L | AST (3 h): 64.6 IU/L | BUN (3 h): 11.6 mg/dL | CRE (3 h): 0.4 mg/dL | Ca (3 h): 10.7 mg/dL | Cl (3 h): 103 meq/L | DBIL (3 h): 0.082 mg/dL | GLC (3 h): 199.2 mg/dL | IP (3 h): 9 mg/dL | K (3 h): 3.6 meq/L | LDH (3 h): 176.6 IU/L | Na (3 h): 141.2 meq/L | PL (3 h): 131.8 mg/dL | RALB (3 h): 3.3 g/dL | TBIL (3 h): 0.1 mg/dL | TG (3 h): 66.2 mg/dL | TP (3 h): 5.4 g/dL | gamma-GTP (3 h): 0.8 IU/L | TERMINAL_BW (6 h): 213.8 g | APTT (6 h): 19.3 s | Bas (6 h): 0% | Eos (6 h): 1% | Fbg (6 h): 220.2 mg/dL | Hb (6 h): 13.7 g/dL | Ht (6 h): 40% | Lym (6 h): 77% | MCH (6 h): 21.3 pg | MCV (6 h): 62.5 fL | Mono (6 h): 3.2% | Neu (6 h): 17.6% | PT (6 h): 12.5 s | Plat (6 h): 115.6 x10_4/uL | RBC (6 h): 640.4 x10_4/ul | Ret (6 h): 6.6% | WBC (6 h): 94.2 x10_2/uL | KIDNEY_L (6 h): 1 g | KIDNEY_R (6 h): 1 g | KIDNEY_TOTAL (6 h): 2 g | LIVER (6 h): 9.2 g | ALP (6 h): 858.4 IU/L | ALT (6 h): 37 IU/L | AST (6 h): 65.6 IU/L | BUN (6 h): 8.8 mg/dL | CRE (6 h): 0.4 mg/dL | Ca (6 h): 10.5 mg/dL | Cl (6 h): 103 meq/L | DBIL (6 h): 0.08 mg/dL | GLC (6 h): 196.8 mg/dL | IP (6 h): 9.4 mg/dL | K (6 h): 3.9 meq/L | LDH (6 h): 175.2 IU/L | Na (6 h): 140.2 meq/L | PL (6 h): 133.4 mg/dL | RALB (6 h): 3.3 g/dL | TBIL (6 h): 0.1 mg/dL | TG (6 h): 60.4 mg/dL | TP (6 h): 5.5 g/dL | gamma-GTP (6 h): 1.4 IU/L | TERMINAL_BW (9 h): 211.7 g | APTT (9 h): 22.5 s | Bas (9 h): 0% | Eos (9 h): 1% | Fbg (9 h): 220 mg/dL | Hb (9 h): 13 g/dL | Ht (9 h): 38.2% | Lym (9 h): 78.8% | MCH (9 h): 20.9 pg | MCV (9 h): 61.5 fL | Mono (9 h): 2.2% | Neu (9 h): 17.5% | PT (9 h): 13.2 s | Plat (9 h): 119.7 x10_4/uL | RBC (9 h): 621.8 x10_4/ul | Ret (9 h): 6.6% | WBC (9 h): 89.4 x10_2/uL | KIDNEY_L (9 h): 1 g | KIDNEY_R (9 h): 1 g | KIDNEY_TOTAL (9 h): 2 g | LIVER (9 h): 9.3 g | ALP (9 h): 824.8 IU/L | ALT (9 h): 32 IU/L | AST (9 h): 63.8 IU/L | BUN (9 h): 9.8 mg/dL | CRE (9 h): 0.4 mg/dL | Ca (9 h): 10.3 mg/dL | Cl (9 h): 102 meq/L | DBIL (9 h): 0.07 mg/dL | GLC (9 h): 202.8 mg/dL | IP (9 h): 9.3 mg/dL | K (9 h): 3.9 meq/L | LDH (9 h): 170.4 IU/L | Na (9 h): 140.2 meq/L | PL (9 h): 127 mg/dL | RALB (9 h): 3.3 g/dL | TBIL (9 h): 0.1 mg/dL | TG (9 h): 47 mg/dL | TP (9 h): 5.3 g/dL | gamma-GTP (9 h): 1 IU/L | TERMINAL_BW (24 h): 225.7 g | APTT (24 h): 21.9 s | Bas (24 h): 0% | Eos (24 h): 0.8% | Fbg (24 h): 215.6 mg/dL | Hb (24 h): 13.7 g/dL | Ht (24 h): 40.7% | Lym (24 h): 79.8% | MCH (24 h): 21.5 pg | MCV (24 h): 63.9 fL | Mono (24 h): 2.4% | Neu (24 h): 15.8% | PT (24 h): 12.1 s | Plat (24 h): 117.9 x10_4/uL | RBC (24 h): 637.2 x10_4/ul | Ret (24 h): 6% | WBC (24 h): 90.1 x10_2/uL | KIDNEY_L (24 h): 1 g | KIDNEY_R (24 h): 1 g | KIDNEY_TOTAL (24 h): 2 g | LIVER (24 h): 10.4 g | ALP (24 h): 990.6 IU/L | ALT (24 h): 39.2 IU/L | AST (24 h): 70.4 IU/L | BUN (24 h): 15.6 mg/dL | CRE (24 h): 0.4 mg/dL | Ca (24 h): 10.6 mg/dL | Cl (24 h): 102.4 meq/L | DBIL (24 h): 0.088 mg/dL | GLC (24 h): 207 mg/dL | IP (24 h): 7.9 mg/dL | K (24 h): 4 meq/L | LDH (24 h): 199 IU/L | Na (24 h): 140.4 meq/L | PL (24 h): 146.2 mg/dL | RALB (24 h): 3.4 g/dL | TBIL (24 h): 0.1 mg/dL | TG (24 h): 93.6 mg/dL | TP (24 h): 5.6 g/dL
